Reference: US4536335A, “Carbapenem antibiotics” (Bristol-Myers Company, priority 1983, dated 1985)
Converted amounts (≈) assume the structure as drawn. Read-outs that look alike come from different tables or passages of the source.

Key:
P. aeruginosa A-9843A [1] = assay: In vitro MIC, tube dilution; format: cell-based; conditions: Pseudomonas aeruginosa, A9843A, Nutrient Broth, overnight incubation at 37° C.
B. fragilis A22053 = assay: In vitro MIC, tube dilution; format: cell-based; conditions: Bacteroides fragilis, Nutrient Broth, overnight incubation at 37° C.
Description: (§1) N-Formimidoyl thienamycin was included as a comparison compound.

B. fragilis A22863 = assay: In vitro MIC, tube dilution; format: cell-based; conditions: Bacteroides fragilis, Nutrient Broth, overnight incubation at 37° C.
Description: as §1

E. cloacae A-9569 = assay: In vitro MIC, tube dilution; format: cell-based; conditions: Enterobacter cloacae, A9569, Nutrient Broth, overnight incubation at 37° C.
Description: as §1

B. fragilis A22696 = assay: In vitro MIC, tube dilution; format: cell-based; conditions: Bacteroides fragilis, Nutrient Broth, overnight incubation at 37° C.
Description: as §1

S. aureus A-9606 = assay: Protective effect in the intramuscular treatment of infected mice (PD50); format: in vivo; conditions: Staphylococcus aureus, A9606, im, read-out: PD50/treatment, S. aureus A-9606, mice infected i.p. (Ex. 2: 2 × 10^9 organisms; Ex. 4 and 5: ~9 × 10^7), treated i.m. 0 and 2 h postinfection
P. aeruginosa A20481 = assay: as above; format: in vivo; conditions: Pseudomonas aeruginosa, A20481, im; mice infected i.p. (Ex. 2: 1 × 10^5 organisms), treated i.m. 0 and 2 h postinfection
[2] = test system: S. aureus A-9606 (Pen-res.); assay: In vitro MIC, tube dilution; format: cell-based; conditions: Nutrient Broth, overnight incubation at 37° C.; for MIC: Staphylococcus aureus
S. marcescens A20019 = assay: In vitro MIC, tube dilution; format: cell-based; conditions: tube dilution, Nutrient Broth, overnight incubation at 37° C.
S. pneumoniae A-9585 = assay: In vitro MIC, tube dilution; format: cell-based; conditions: overnight incubation at 37° C.; for MIC: Streptococcus pneumoniae, A9585, Nutrient Broth
E. cloacae A-9656 = assay: In vitro MIC, tube dilution; format: cell-based; conditions: tube dilution, Nutrient Broth, overnight incubation at 37° C.
P. aeruginosa A21213 = assay: In vitro MIC, tube dilution; format: cell-based; conditions: Nutrient Broth, overnight incubation at 37° C.; for MIC: Pseudomonas aeruginosa, A21213, tube dilution
P. morganii A15153 = assay: In vitro MIC, tube dilution; format: cell-based; conditions: Morganella morganii, A15153, tube dilution, Nutrient Broth, overnight incubation at 37° C.; read-out: MIC P. morganii A15153
S. pyogenes A-9604 = assay: In vitro MIC, tube dilution; format: cell-based; conditions: Nutrient Broth, overnight incubation at 37° C.; for MIC: Streptococcus pyogenes, A9604, tube dilution
P. aeruginosa A-9843a [3] = assay: Protective effect in the intramuscular treatment of infected mice (PD50); format: in vivo; conditions: Pseudomonas aeruginosa, A9843A, im
Procedure: The PD50 (dose in mg/kg required to give protection to 50% of the infected mice) is indicated.
Treatment Schedule: Mice were treated i.m. with drugs 0 and 2 hours post-infection; 5 mice per dose were used for each test
*For compound of Ex. 2, mice were infected i.p. with 2 × 10^9
compounds of Ex. 4 and 5, mice were infected i.p. with ~9 ×
were treated i.m. with drugs 0 and 2 h postinfection.

[4] = Blood levels in mice after intramuscular administration; format: in vivo; conditions: mouse, intramuscular dose of 20 mg/kg
Description: Compounds were solubilized in 0.1 M phosphate buffer pH 7. Values are fro
a single test; 4 mice used per compound.
*t1/2 refers to halflife in minutes
**AUC refers to the area under the blood concentrationtime curve
(§2) Also shown is the urinary recovery in the mice.
Compounds were solubilized in 0.1 M phosphate buffer, pH 7.
Values based on a single test; 4 mice per compound.
*T1/2 refers to halflife in minutes

K. pneumoniae A-9664 = assay: In vitro MIC, tube dilution; format: cell-based; conditions: Nutrient Broth, overnight incubation at 37° C.; for MIC: Klebsiella pneumoniae, A9664, tube dilution
S. faecalis A20688 = assay: In vitro MIC, tube dilution; format: cell-based; conditions: Nutrient Broth, overnight incubation at 37° C.; for MIC: Enterococcus faecalis, A20688, tube dilution
P. mirabilis A-9900 = assay: In vitro MIC, tube dilution; format: cell-based; conditions: Nutrient Broth, overnight incubation at 37° C.; for MIC: Proteus mirabilis, A9900, tube dilution
P. rettgeri A22424 = assay: In vitro MIC, tube dilution; format: cell-based; conditions: Providencia rettgeri, A22424, tube dilution, Nutrient Broth, overnight incubation at 37° C.
[5] = Urinary recovery after intramuscular administration to mice; format: in vivo; conditions: mouse, urine, im, 20 mg/kg, mice, i.m. 20 mg/kg, 6-24 hours after administration; read-out: Percentage of Dose Recovered in urine, 6-24 hours
Procedure: Compounds were solubilized in 0.1 M phosphate buffer pH 7. Values are from a single test; 4 mice per compound.
as §2
***Recovery based on 0-6 hour collection

K. pneumoniae A20468 = assay: In vitro MIC, tube dilution; format: cell-based; conditions: Klebsiella pneumoniae, A20468, tube dilution, Nutrient Broth, overnight incubation at 37° C.
[6] = tube dilution, additional data table, listed as MK 0787

## C[C@@H](O)[C@H]1C(=O)N2C(C(=O)O)=C(SCCN=CN)C[C@H]12 [N-Formimidoyl Thienamycin, N-formimidoyl thienamycin, reference compound]
P. aeruginosa A-9843A [1]
  MIC: 1 µg/mL (≈ 3.34 µM)
P. aeruginosa A-9843A [1]; additional data table
  MIC: 1 µg/mL (≈ 3.34 µM)
B. fragilis A22053
  MIC: 0.06 µg/mL (≈ 0.2 µM)
B. fragilis A22863
  MIC: 1 µg/mL (≈ 3.34 µM)
E. cloacae A-9569
  MIC: 0.06 µg/mL (≈ 0.2 µM)
B. fragilis A22696
  MIC: 0.13 µg/mL (≈ 0.434 µM)
S. aureus A-9606
  ED50: 0.07 mg/kg
P. aeruginosa A20481
  ED50: 0.4 mg/kg
[2]; additional data table, listed as MK 0787
  MIC S. aureus (Pen-res.) A-9606: 0.004 µg/mL (≈ 0.0134 µM)
[2]; additional data table, read-out: MIC S. aureus (Pen-res.) A-9606
  MIC: 0.008 µg/mL (≈ 0.0267 µM)
[2]; read-out: MIC S. aureus A-9606 (Pen-res.)
  MIC: 0.008 µg/mL (≈ 0.0267 µM)
S. marcescens A20019; Serratia marcescens, A20019
  MIC: 0.03 µg/mL (≈ 0.1 µM)
S. marcescens A20019; additional data table
  MIC S. marcescens A20019: 0.03 µg/mL (≈ 0.1 µM)
S. pneumoniae A-9585; Nutrient Broth, additional data table, listed as MK 0787
  MIC S. pneumoniae A-9585: 0.001 µg/mL (≈ 0.00334 µM)
S. pneumoniae A-9585
  MIC: 0.004 µg/mL (≈ 0.0134 µM)
S. pneumoniae A-9585; additional data table
  MIC: 0.002 µg/mL (≈ 0.00668 µM)
E. cloacae A-9656; Enterobacter cloacae, A9656
  MIC: 0.06 µg/mL (≈ 0.2 µM)
E. cloacae A-9656; additional data table
  MIC E. cloacae A-9656: 0.06 µg/mL (≈ 0.2 µM)
P. aeruginosa A21213
  MIC: 0.25 µg/mL (≈ 0.835 µM)
P. aeruginosa A21213; additional data table
  MIC: 0.13 µg/mL (≈ 0.434 µM)
P. aeruginosa A21213; [6]
  MIC P. aeruginosa A21213: 0.25 µg/mL (≈ 0.835 µM)
P. morganii A15153
  MIC: 0.13 µg/mL (≈ 0.434 µM)
S. pyogenes A-9604
  MIC: 0.001 µg/mL (≈ 0.00334 µM)
S. pyogenes A-9604; additional data table
  MIC: 0.002 µg/mL (≈ 0.00668 µM)
S. pyogenes A-9604; [6]
  MIC S. pyogenes A-9604: 0.001 µg/mL (≈ 0.00334 µM)
P. aeruginosa A-9843a [3]; read-out: PD50/treatment, P. aeruginosa A9843A
  ED50: 1 mg/kg
P. aeruginosa A-9843a [3]; mice, i.m., *Historical data, read-out: PD50/Treatment, P. aeruginosa A-9843a (historical data)
  ED50: 0.5 mg/kg
[4]
  Blood AUC: 6000 ng·h/mL
K. pneumoniae A-9664
  MIC: 0.13 µg/mL (≈ 0.434 µM)
K. pneumoniae A-9664; additional data table
  MIC: 0.03 µg/mL (≈ 0.1 µM)
K. pneumoniae A-9664; [6]
  MIC K. pneumoniae A-9664: 0.06 µg/mL (≈ 0.2 µM)
S. faecalis A20688
  MIC: 0.5 µg/mL (≈ 1.67 µM)
S. faecalis A20688; additional data table
  MIC: 0.25 µg/mL (≈ 0.835 µM)
S. faecalis A20688; [6]
  MIC S. faecalis A20688: 0.5 µg/mL (≈ 1.67 µM)
P. mirabilis A-9900
  MIC: 0.06 µg/mL (≈ 0.2 µM)
P. mirabilis A-9900; additional data table
  MIC: 0.03 µg/mL (≈ 0.1 µM)
P. mirabilis A-9900; [6]
  MIC P. mirabilis A-9900: 0.06 µg/mL (≈ 0.2 µM)
P. rettgeri A22424
  MIC: 0.25 µg/mL (≈ 0.835 µM)
P. rettgeri A22424; additional data table
  MIC: 0.13 µg/mL (≈ 0.434 µM)
[5]
  dose excreted at 24 h: < 0.1%
K. pneumoniae A20468
  MIC: 0.06 µg/mL (≈ 0.2 µM)
